Source: patent US8685974B2 (Bayer CropScience AG, priority 2009, dated 2014)
Marks after values point to notes of the source that are not given here.

How the values were obtained:
[1] = pH 2.7
[2] = tested on: Alternaria solani; experiment: Alternaria test (tomato) / protective; format: in vivo; conditions: 500 ppm active compound, protective spray, evaluated 7 days after inoculation
Method: Alternaria Test (Tomato)/Protective
Solvent: 49 parts by weight of N,N-dimethylformamide
Emulsifier: 1 part by weight of alkylaryl polyglycol ether
To produce a suitable preparation of active compound, 1 part by weight of active compound is mixed with the stated amounts of solvent and emulsifier, and the concentrate is diluted with water to the desired concentration.
To test for protective activity, young tomato plants are sprayed with the preparation of active compound at the stated application rate. […] The plants then remain at 96% rel. atmospheric humidity and a temperature of 20° C.
Evaluation is carried out 7 days after the inoculation. 0% means an efficacy which corresponds to that of the control, whereas an efficacy of 100% means that no infection is observed.

[3] = tested on: Fusarium graminearum; format: cell-based; conditions: 50 μM; for % Inhibition of DON/AcDON at 50 μM: 7 days at 28° C.

SMILES	log p [1]	efficacy [2] [%]	% Inhibition of fungal growth at 50 μM [3] [%]	% Inhibition of DON/AcDON at 50 μM [3] [%]	logP value of the minor isomer [1]
O=C1OCCC1n1cc(-c2ccncc2)c(-c2ccc(Cl)s2)n1 (stereo not shown) [Example 365]	1.48^[b]	78	100	90	
CC(C)n1cc(-c2ccncc2)c(-c2cc3ccsc3s2)n1 [Example 366]	1.79^[b]	78	93	98	
FCCn1cc(-c2ccncc2)c(-c2cc3ccsc3s2)n1 [Example 367]	1.45^[b]	78	78	99	
C=CC(C)n1cc(-c2ccncc2)c(-c2cc3ccsc3s2)n1 (stereo not shown) [Example 368]	1.94^[b]	78	100	99	
CC(C)Cn1cc(-c2ccncc2)c(-c2cc3ccsc3s2)n1 [Example 369]	2.04^[b]	94	100	99	
FC(F)Cn1cc(-c2ccncc2)c(-c2cc3ccsc3s2)n1 [Example 371]	1.63^[b]	78	82	99	
Fc1ccc(-c2nn(CC(F)F)cc2-c2ccncc2)s1 [Example 373]	1.34^[b]	100	97	99	
CCOCCn1cc(-c2ccncc2)c(-c2ccc(F)s2)n1 [Example 374]	1.43^[b]	94	58	99	
FCCn1cc(-c2ccncc2)c(-c2ccc(F)s2)n1 [Example 375]	1.16^[b]	100	78	99	
C=CC(C)n1cc(-c2ccncc2)c(-c2ccc(F)s2)n1 (stereo not shown) [Example 376]	1.73^[b]	100	84	99	
CCn1cc(-c2ccncc2)c(-c2ccc(F)s2)n1 [Example 377]	1.28^[b]	100	89	99	(1.22)
Fc1ccc(-c2nn(CC(F)(F)F)cc2-c2ccncc2)s1 [Example 378]	1.64^[b]	100	54	99	(1.46)
CC(C)Cn1cc(-c2ccncc2)c(-c2ccc(F)s2)n1 [Example 379]	1.82^[b]	94	90	99	(1.72)
CCC(CC)n1cc(-c2ccncc2)c(-c2ccc(F)s2)n1 [Example 380]	2.04^[b]	89	82	99	(1.95)
Fc1ccc(-c2nn(CCCl)cc2-c2ccncc2)s1 [Example 381]	1.45^[b]	94	91	99	(1.34)
O=C1OCCC1n1cc(-c2ccncc2)c(-c2ccc(Br)s2)n1 (stereo not shown) [Example 385]	1.52^[b]	94	17	82	
C=CC(C)n1cc(-c2ccncc2)c(-c2ccc(Br)s2)n1 (stereo not shown) [Example 389]	2.03^[b]	94	96	99	(1.88)
CCn1cc(-c2ccncc2)c(-c2ccc(Br)s2)n1 [Example 390]	1.6^[b]	100	100	99	(1.49)
FC(F)(F)Cn1cc(-c2ccncc2)c(-c2ccc(Br)s2)n1 [Example 391]	1.98^[b]	100	97	99	
CCC(C)n1nc(-c2ccc(Cl)s2)c(-c2ccncc2)c1Br (stereo not shown) [Example 394]	3.69^[b]	94	92	100	
CC(C)Cn1nc(-c2ccc(Cl)s2)c(-c2ccncc2)c1Br [Example 395]	3.58^[b]	78	0	99	
